Consider one compound from patent US20240245677A1, “SELECTED COMPOUNDS FOR TARGETED DEGRADATION OF BRD9” (C4 THERAPEUTICS, INC., priority 2021, published 2024).

One experiment has as its target T1, IKZF1 (Homo sapiens, UniProt Q13422+Q96SW2).
T1 construct: CRISPR-edited to endogenously express HiBiT tagged IKZF1; host or cells: NCIH929.11
The experiment is described as follows: IKZF1 HiBiT degradation assay in NCIH929.11 cells. The experiment is classed as cell-based.

The target of another experiment is T2, SALL4 (Homo sapiens, UniProt Q96SW2+Q9UJQ4).
T2 construct: CRISPR-edited to endogenously express HiBiT tagged SALL4; host or cells: KELLY.2
T2 sequence (Q9UJQ4 whole entry): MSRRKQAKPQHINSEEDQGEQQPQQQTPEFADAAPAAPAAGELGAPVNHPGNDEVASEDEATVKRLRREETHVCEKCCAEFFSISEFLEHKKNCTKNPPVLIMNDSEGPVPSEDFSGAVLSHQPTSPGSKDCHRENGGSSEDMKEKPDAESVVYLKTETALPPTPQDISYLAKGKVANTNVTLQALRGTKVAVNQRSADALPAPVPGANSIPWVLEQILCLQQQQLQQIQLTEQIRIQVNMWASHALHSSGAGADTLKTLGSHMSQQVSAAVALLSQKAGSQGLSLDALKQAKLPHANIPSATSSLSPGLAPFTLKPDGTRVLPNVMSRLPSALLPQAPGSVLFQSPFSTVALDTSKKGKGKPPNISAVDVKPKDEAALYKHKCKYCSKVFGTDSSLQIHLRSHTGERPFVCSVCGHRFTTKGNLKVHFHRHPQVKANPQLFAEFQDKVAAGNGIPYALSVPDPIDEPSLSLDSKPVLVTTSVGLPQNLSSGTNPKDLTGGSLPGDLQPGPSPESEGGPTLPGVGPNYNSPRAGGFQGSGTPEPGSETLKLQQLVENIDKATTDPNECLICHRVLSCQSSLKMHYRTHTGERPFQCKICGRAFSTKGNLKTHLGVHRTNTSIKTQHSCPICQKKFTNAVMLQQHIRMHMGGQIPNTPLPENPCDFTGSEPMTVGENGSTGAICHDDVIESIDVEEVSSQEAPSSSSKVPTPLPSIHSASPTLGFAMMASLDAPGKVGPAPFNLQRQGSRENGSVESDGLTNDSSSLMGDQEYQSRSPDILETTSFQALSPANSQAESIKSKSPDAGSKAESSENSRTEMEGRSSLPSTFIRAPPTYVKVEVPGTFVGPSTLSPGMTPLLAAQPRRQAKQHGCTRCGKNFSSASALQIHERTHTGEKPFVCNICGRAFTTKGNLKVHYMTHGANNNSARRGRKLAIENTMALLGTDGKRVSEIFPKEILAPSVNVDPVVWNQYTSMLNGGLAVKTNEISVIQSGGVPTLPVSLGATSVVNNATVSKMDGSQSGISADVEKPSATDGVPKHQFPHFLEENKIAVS
T2 sequence (Q96SW2 whole entry): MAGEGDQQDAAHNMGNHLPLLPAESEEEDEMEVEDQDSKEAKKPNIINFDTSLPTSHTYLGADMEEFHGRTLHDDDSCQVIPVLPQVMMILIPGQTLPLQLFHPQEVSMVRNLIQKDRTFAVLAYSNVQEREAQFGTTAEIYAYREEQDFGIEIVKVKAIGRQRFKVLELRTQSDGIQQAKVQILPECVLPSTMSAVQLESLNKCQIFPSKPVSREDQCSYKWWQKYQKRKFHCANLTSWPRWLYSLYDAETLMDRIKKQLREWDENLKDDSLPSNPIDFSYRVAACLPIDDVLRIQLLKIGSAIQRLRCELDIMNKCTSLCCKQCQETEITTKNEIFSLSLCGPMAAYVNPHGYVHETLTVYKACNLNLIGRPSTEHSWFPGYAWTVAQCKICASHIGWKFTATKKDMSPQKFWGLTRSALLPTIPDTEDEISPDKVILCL
T2 sequence (Q16531 2-1140 partner limits assumed): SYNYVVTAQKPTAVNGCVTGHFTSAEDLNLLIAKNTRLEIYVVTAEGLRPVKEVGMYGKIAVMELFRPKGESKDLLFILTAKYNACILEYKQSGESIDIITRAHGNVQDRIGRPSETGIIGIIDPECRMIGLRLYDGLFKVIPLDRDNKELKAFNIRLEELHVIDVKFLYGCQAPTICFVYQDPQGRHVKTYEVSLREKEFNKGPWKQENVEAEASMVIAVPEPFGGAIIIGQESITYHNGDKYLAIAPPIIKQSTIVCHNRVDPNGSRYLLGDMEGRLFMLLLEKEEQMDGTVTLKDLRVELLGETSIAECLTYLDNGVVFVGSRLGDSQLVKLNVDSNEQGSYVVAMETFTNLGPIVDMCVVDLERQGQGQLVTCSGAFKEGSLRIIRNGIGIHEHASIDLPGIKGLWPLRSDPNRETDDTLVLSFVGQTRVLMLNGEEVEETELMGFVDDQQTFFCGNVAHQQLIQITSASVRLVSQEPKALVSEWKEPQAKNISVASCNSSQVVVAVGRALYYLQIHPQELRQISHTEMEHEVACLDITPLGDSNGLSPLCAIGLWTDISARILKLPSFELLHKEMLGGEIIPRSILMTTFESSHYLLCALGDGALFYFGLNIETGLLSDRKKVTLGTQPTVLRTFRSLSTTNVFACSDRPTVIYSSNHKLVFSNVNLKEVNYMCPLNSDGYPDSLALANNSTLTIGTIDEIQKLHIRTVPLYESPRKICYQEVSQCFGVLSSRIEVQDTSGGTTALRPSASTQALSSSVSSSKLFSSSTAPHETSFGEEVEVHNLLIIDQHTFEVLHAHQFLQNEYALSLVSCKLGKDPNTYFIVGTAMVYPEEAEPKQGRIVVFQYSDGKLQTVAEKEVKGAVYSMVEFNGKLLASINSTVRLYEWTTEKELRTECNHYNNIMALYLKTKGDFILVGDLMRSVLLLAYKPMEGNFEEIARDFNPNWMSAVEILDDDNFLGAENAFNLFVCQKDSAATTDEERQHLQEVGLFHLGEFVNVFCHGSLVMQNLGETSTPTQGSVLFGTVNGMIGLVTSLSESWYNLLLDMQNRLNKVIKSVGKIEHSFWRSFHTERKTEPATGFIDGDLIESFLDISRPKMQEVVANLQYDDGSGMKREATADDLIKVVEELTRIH
The experiment is described as follows: SALL4 HiBiT degradation assay in KELLY.2 cells. As to conditions: read-out: Mean Emax (%) ± SD. The experiment is classed as cell-based. From the text:
Nano-Glo® HiBiT Lytic Assay System was purchased from Promega (Catalog No. N3050, Madison, WI, USA). […] The HiBiT polypeptide tag was introduced into the C-terminus of the endogenous SALL4 locus by CRISPR-Cas9 to produce the modified KELLY.2 cell line. The HiBiT polypeptide allows reconstitution of NanoBiT enzyme following cell lysis and addition of the complementing LgBiT polypeptide that activates substrate to produce a luminescent signal that is directly proportional to the amount of HiBiT-tagged SALL4.
KELLY.2 cells were routinely sub-cultured to maintain cell density between 30-80% confluence, not to exceed 10 passages. Cells were washed with PBS, trypsinized for 5 minutes at 37° C., and resuspended in fresh growth media without phenol red. […] Cell concentration was adjusted with growth media without phenol red to 2×10^5 cells/mL.
30 nL DMSO was transferred to all control wells.
30 μL of media was dispensed to column 24 as background positive control (P). Plates were spun briefly at 1000 rpm and cells were incubated at 37° C., 5% CO2 for 6 hours. Final concentration of DMSO was 0.1% for all samples.
Cellular SALL4 protein level was determined based on quantification of HiBiT using Nano-Glo® HiBiT Lytic Assay System (Promega). […] Cells treated in the absence of the test compound (0.1% DMSO vehicle) were the negative control (N) and wells containing only media were the positive control (P).
Percent response of compound-treated samples (T) were calculated by normalizing to the DMSO treated negative (N) controls on the same microtiter plate after background (i.e., positive control) signal subtraction:
Curve fit and DC50 (concentration that degrades 50% SALL4) determination was performed by 4 parametric logistic fit analysis using software such as GraphPad Prism software (GraphPad Software, LLC, San Diego, CA, USA). The fit was performed through minimization of the root mean squared error between observed and calculated values of the four-parameter logistic equation using the simplex optimizer of the Apache Commons Math library. […] DC50 values were computed as the concentrations where the fitted curves cross the 50% response level. Averages and standard deviations were computed from replicates of the experiment.

T1 sequence (Q13422 whole entry): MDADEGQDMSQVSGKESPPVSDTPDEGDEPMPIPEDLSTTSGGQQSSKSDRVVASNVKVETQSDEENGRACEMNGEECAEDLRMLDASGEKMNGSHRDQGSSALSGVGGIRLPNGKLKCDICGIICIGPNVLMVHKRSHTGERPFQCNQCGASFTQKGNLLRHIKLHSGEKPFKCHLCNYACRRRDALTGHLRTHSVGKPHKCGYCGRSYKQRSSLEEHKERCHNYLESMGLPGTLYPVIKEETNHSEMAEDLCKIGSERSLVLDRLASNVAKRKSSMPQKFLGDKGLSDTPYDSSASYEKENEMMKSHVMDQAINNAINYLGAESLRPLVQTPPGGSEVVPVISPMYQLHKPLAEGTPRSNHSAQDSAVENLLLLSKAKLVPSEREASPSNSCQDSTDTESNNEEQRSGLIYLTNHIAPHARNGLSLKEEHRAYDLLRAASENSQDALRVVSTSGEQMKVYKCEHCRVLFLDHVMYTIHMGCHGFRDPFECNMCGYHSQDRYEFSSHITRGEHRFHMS
T1 sequence (Q96SW2 whole entry): as the sequence (Q96SW2 whole entry) above
T1 sequence (Q16531 2-1140 partner limits assumed): as the sequence (Q16531 2-1140 partner limits assumed) above

As to `Nc1cccc2c1C(=O)N(C1CCC(=O)NC1=O)C2=O` (stereo not drawn) [Pomalidomide, reference compound], at IKZF1 (positive control, 6 hours), the “degradation of IKZF1 induced” value stood at 8000. The maximal effect (Emax) worked out at 20.8 ± 3.2% at IKZF1 (read-out: Mean Emax (%) ± SD) and 9.5 ± 1.5% at SALL4.
